Test results from patent US9815796B2 (Merck Sharp & Dohme Corp., priority 2013, dated 2017).

target: human PDE2A1 (Homo sapiens (Human), UniProt O00408); experiment: IMAP FP PDE selectivity panel, human PDE2A1; type: biochemical; conditions: Human PDE2, Lab B; read-out: Human PDE2 Ki (nM) - Lab B
Method: Selectivity for PDE2, as compared to other PDE families, was assessed using the IMAP® technology. Human PDE 10A2 enzyme was prepared from cytosolic fractions of transiently transfected HEK cells. All other PDE's were GST Tag human enzyme expressed in insect cells and were obtained from BPS Bioscience (San Diego, Calif.): PDE1A (Cat#60010), human PDE2A1 (Cat#60020), PDE3A (Cat#60030), PDE4A1A (Cat#60040), PDE5A1 (Cat#60050), PDE6C (Cat#60060), PDE7A (Cat#60070), PDE8A1 (Cat#60080), PDE9A2 (Cat#60090), PDE11A4 (Cat#60110).
Assays for PDE 1 through 11 were performed in parallel at room temperature in 384-well microtiter plates with an incubation volume of 20.2 μL. Solutions of test compounds were prepared in DMSO and serially diluted with DMSO to yield 30 μL of each of ten solutions differing by 3-fold in concentration, at 32 serial dilutions per plate. […] A Labcyte POD 810 (Labcyte, Sunnyvale, Calif.) was used to dispense 200 nL from each well of the titration plate to make eleven copies of the assay plate for each titration, one copy for each PDE enzyme. A solution of each enzyme (dilution from aliquots, sufficient to produce 20% substrate conversion) and a separate solution of FAM-labeled cAMP or FAM-labeled cGMP from Molecular Devices (Sunnyvale, Calif., product # R7506 or cGMP#R7508), at a final concentration of 50 nM were made in the assay buffer (10 mM Tris HCl, pH 7.2, 10 mM MgCl2, 0.05% NaN3 0.01% Tween-20, and 1 mM DTT). Note that the substrate for PDE2 is 50 nM FAM cAMP containing 1000 nM of cGMP. The enzyme and the substrate were then added to the assay plates in two consecutive additions of 10 μL and then shaken to mix. The reaction was allowed to proceed at room temperature for 60 minutes. A binding solution was then made from the kit components, comprised of 80% Solution A, 20% Solution B and binding reagent at a volume of 1/600 the total binding solution. The enzymatic reaction was stopped by addition of 60 μL of the binding solution to each well of the assay plate. The plates were sealed and shaken for 10 seconds. The plates were incubated at room temperature for one hour, then the parallel and perpendicular fluorescence was measured using a Tecan Genios Pro plate reader (Tecan, Switzerland). The apparent inhibition constants for the compounds against all 11 PDE's was determined from the parallel and perpendicular fluorescent readings as described for PDE10 FP assay using the following apparent KM values for each enzyme and substrate combination: PDE1A (FAM cGMP) 70 nM, human PDE2A1 (FAM cAMP) 10,000 nM, PDE3A (FAM cAMP) 50 nM, PDE4A1A (FAM cAMP) 1500 nM, PDE5A1 (FAM cGMP) 400 nM, PDE6C (FAM cGMP) 700 nM, PDE7A (FAM cAMP) 150 nM, PDE8A1 (FAM cAMP) 50 nM, PDE9A2 (FAM cGMP) 60 nM, PDE10A2 (FAM cAMP) 150 nM, PDE11A4 (FAM cAMP) 1000 nM. The intrinsic PDE2 inhibitory activity of a compound which may be used in accordance with the present invention may be determined by these assays.

Chain of human PDE2A1 (O00408 other isoform, or with tags, fused parts or gaps): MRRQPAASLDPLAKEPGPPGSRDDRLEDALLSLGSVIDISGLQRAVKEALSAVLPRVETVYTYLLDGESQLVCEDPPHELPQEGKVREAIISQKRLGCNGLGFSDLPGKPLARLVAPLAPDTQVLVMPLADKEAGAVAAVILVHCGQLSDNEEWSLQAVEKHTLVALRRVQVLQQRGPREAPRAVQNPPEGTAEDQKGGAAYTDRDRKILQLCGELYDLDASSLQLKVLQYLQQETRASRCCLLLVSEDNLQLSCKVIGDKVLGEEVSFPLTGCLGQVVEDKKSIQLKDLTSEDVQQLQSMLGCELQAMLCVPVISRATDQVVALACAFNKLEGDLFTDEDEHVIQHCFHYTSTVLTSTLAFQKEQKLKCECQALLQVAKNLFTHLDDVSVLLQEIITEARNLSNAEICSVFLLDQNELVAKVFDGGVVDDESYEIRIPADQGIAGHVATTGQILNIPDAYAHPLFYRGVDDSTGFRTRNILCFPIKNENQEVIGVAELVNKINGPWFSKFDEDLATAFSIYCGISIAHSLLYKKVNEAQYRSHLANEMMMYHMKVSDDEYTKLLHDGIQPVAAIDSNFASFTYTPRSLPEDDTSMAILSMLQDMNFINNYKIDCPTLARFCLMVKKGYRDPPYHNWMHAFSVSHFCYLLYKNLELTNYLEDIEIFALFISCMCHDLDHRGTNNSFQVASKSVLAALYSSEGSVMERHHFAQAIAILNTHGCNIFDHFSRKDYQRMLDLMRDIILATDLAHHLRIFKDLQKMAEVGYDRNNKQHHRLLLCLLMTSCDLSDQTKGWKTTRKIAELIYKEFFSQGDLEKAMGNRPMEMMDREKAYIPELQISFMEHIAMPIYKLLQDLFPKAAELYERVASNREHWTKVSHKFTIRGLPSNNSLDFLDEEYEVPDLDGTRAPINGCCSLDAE

Row | SMILES | Ki
1 | Cc1nc(C(=O)N[C@@H](c2ccc3c(c2)OC(F)(F)O3)C(C)C)cc(=O)[nH]1 [Example 607, N-[(1R)-1-(2,2-difluoro-1,3-benzodioxol-5-yl)-2-methylpropyl]-2-methyl-6-oxo-1,6-dihydropyrimidine-4-carboxamide] | 48 nM
2 | CC(C)(C)[C@@H](NC(=O)c1cc(=O)[nH]c(-c2ccccc2)n1)c1ccc(S(F)(F)(F)(F)F)cc1 [Example 540, N-{(1R)-2,2-dimethyl-1-[4-(pentafluoro-λ^6-sulfanyl)phenyl]propyl}-6-oxo-2-phenyl-1,6-dihydropyrimidine-4-carboxamide] | 1.6 nM
3 | O=C(NC1(c2ccc(CC(F)(F)F)cc2)CC1)c1cc(=O)[nH]c(-c2ncccn2)n1 [Example 578, 6-oxo-N-{1-[4-(2,2,2-trifluoroethyl)phenyl]cyclopropyl}-1,6-dihydro-2,2′-bipyrimidine-4-carboxamide] | 104 nM
4 | CC(C)(C)[C@@H](NC(=O)c1cc(=O)[nH]c(-c2ccccc2)n1)c1ccc(CC(F)(F)F)cc1 [Example 537, N-{(1R)-2,2-dimethyl-1-[4-(2,2,2-trifluoroethyl)phenyl]propyl}-6-oxo-2-phenyl-1,6-dihydropyrimidine-4-carboxamide] | 2.4 nM
5 | O=C(NC1(c2ccc3c(c2)OC(F)(F)O3)CC1)c1cc(=O)[nH]c(-c2ccccc2)n1 [Example 535, N-[1-(2,2-difluoro-1,3-benzodioxol-5-yl)cyclopropyl]-6-oxo-2-phenyl-1,6-dihydropyrimidine-4-carboxamide] | 24 nM
6 | CC(C)(C)[C@@H](NC(=O)c1cc(=O)[nH]c(-c2ncccn2)n1)c1ccc(S(F)(F)(F)(F)F)cc1 [Example 566, N-{(1R)-2,2-dimethyl-1-[4-(pentafluoro-λ^6-sulfanyl)phenyl]propyl}-6-oxo-1,6-dihydro-2,2′-bipyrimidine-4-carboxamide] | 4.3 nM
7 | Cc1nc(C(=O)N[C@@H](c2ccc3c(c2)OC(F)(F)O3)C(C)(C)C)cc(=O)[nH]1 [Example 633, N-[(1R)-1-(2,2-difluoro-1,3-benzodioxol-5-yl)-2,2-dimethylpropyl]-2-methyl-6-oxo-1,6-dihydropyrimidine-4-carboxamide] | 16 nM
8 | Cc1nc(C(=O)N[C@@H](c2ccc(C3(C)CC3)cc2)C(C)C)cc(=O)[nH]1 [Example 532, 2-methyl-N-{(1R)-2-methyl-1-[4-(1-methylcyclopropyl)phenyl]propyl}-6-oxo-1,6-dihydropyrimidine-4-carboxamide] | 16 nM
9 | CC(C)(C)C(NC(=O)c1cc(=O)[nH]c(-c2ncco2)n1)c1ccc(C(F)(F)F)cc1 (single isomer, unassigned) [Example 682, (R)- or (S)-N-(2,2-dimethyl-1-(4-(trifluoromethyl)phenyl)propyl)-2-(oxazol-2-yl)-6-oxo-1,6-dihydropyrimidine-4-carboxamide] | 48 nM
10 | Cc1nc(C(=O)N[C@@H](c2ccc(C(F)F)c(F)c2)C2(C)CC2)cc(=O)[nH]1 [Example 647, N-[(R)-[4-(difluoromethyl)-3-fluorophenyl](1-methylcyclopropyl)methyl]-2-methyl-6-oxo-1,6-dihydropyrimidine-4-carboxamide] | 52 nM
11 | CC(C)(C)c1ccc(C2(NC(=O)c3cc(=O)[nH]c(-c4ncccn4)n3)CC2)cc1 [Example 575, N-[1-(4-tert-butylphenyl)cyclopropyl]-6-oxo-1,6-dihydro-2,2′-bipyrimidine-4-carboxamide] | 65 nM
12 | Cc1nc(C(=O)NC(C)(C)c2ccc(OC(F)(F)F)cc2F)cc(=O)[nH]1 [Example 597, N-{1-[2-fluoro-4-(trifluoromethoxy)phenyl]-1-methylethyl}-2-methyl-6-oxo-1,6-dihydropyrimidine-4-carboxamide] | 137 nM
13 | CC1([C@@H](NC(=O)c2cc(=O)[nH]c(-c3ncccn3)n2)c2ccc(S(F)(F)(F)(F)F)cc2)CC1 [Example 564, N-{(R)-(1-methylcyclopropyl)[4-(pentafluoro-λ^6-sulfanyl)phenyl]methyl}-6-oxo-1,6-dihydro-2,2′-bipyrimidine-4-carboxamide] | 6.7 nM
